Molecules are shown by their SMILES.

Series [1] relates to model of systemic lupus erythematosis. Particulars: Nature Medicine, 2005, 11, 933-935; cited from earlier work.
The subject of series [2] is mouse model of rheumatoid arthritis. Particulars: Nature Medicine, 2005, 11, 936-943; cited from earlier work.
For the next series, the system named is murine model of asthma. The conditions noted are these: ovalbumin-induced airway inflammation; FASEB, 2006, 20: 455-465; cited from earlier work.
The next series has as its target PI3Kδ (Homo sapiens, UniProt O00329). Particulars: Cell, 2006, 125, 733-747; cited from earlier work.
Series [3] in a line: Compound stability in human liver microsomes. It counts as in vitro ADME. The conditions noted are these: for half-life at 5 μM: human liver microsomes 0.5 mg protein/mL, compound 5 μM, NADPH 1.0 mM, 37° C.; for CLint scaled at 5 μM: human liver microsomes, in vivo CLint extrapolated.
The target of a further series is PI3K (p120γ) (h) (Homo sapiens (Human), UniProt P48736). In words: PI3K (p120γ) (h) non-radioactive HTRF kinase assay. It is filed as biochemical.
Chain of PI3K (p120γ) (h) (P48736 whole entry): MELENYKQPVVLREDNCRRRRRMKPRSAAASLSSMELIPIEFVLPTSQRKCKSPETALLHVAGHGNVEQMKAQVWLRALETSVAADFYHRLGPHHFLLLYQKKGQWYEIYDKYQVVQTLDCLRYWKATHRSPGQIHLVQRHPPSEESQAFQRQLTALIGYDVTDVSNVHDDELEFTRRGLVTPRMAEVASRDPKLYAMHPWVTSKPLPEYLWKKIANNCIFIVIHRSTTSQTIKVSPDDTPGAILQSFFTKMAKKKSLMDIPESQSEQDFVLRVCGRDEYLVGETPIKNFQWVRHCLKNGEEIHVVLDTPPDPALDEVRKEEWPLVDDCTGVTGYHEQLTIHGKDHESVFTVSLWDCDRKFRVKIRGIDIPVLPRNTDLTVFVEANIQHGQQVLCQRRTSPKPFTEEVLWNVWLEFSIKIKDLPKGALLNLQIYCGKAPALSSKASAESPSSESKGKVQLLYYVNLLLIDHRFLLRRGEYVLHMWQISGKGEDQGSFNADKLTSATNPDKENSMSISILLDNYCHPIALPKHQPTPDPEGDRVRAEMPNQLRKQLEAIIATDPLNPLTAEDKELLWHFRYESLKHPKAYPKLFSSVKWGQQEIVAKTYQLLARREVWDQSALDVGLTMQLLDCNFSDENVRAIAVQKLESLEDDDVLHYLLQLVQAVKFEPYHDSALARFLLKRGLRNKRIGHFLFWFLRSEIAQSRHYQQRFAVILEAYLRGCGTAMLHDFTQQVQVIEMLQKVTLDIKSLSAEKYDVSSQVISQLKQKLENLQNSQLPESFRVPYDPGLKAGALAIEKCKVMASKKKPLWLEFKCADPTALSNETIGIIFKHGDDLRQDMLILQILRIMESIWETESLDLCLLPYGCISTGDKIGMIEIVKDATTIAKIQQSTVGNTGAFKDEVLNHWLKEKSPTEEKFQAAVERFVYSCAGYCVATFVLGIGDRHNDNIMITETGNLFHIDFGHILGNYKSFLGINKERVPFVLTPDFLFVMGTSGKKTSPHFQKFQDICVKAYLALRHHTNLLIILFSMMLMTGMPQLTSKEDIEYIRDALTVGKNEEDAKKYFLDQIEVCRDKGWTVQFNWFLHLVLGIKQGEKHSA
In the next series the target is PI3K (p110α/p85α) (h) (Homo sapiens (Human), UniProt P42336). The series is described as follows: PI3K (p110α/p85α) (h) non-radioactive HTRF kinase assay. It is filed as biochemical.
Chain of PI3K (p110α/p85α) (h) (P42336 whole entry): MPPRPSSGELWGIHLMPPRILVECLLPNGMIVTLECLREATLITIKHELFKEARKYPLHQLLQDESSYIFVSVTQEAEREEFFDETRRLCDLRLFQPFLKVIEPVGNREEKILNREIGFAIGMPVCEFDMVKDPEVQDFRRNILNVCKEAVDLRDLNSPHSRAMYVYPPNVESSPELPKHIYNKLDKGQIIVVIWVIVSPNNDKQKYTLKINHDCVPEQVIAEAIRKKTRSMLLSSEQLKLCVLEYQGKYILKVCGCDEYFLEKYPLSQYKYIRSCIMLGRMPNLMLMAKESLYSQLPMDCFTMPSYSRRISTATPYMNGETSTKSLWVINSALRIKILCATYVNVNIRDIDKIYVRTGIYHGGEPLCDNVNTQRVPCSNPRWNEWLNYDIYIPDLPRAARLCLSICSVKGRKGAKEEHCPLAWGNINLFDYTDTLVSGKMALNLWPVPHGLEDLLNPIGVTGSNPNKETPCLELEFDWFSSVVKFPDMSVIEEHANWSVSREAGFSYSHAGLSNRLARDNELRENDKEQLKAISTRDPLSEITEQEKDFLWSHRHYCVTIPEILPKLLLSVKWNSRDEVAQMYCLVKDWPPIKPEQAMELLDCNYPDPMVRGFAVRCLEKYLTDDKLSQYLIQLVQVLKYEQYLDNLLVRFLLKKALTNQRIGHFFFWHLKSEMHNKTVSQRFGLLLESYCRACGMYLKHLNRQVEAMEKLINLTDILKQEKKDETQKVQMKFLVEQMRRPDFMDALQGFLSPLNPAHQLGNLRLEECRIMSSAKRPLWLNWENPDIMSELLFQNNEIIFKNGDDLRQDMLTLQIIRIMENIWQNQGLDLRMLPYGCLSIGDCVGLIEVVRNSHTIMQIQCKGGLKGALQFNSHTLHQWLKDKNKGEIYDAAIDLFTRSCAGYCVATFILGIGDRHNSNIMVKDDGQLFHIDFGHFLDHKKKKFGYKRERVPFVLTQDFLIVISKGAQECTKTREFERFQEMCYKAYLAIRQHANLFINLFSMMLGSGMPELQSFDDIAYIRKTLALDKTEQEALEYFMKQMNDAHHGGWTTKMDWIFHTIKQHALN
Chain of PI3K (p110α/p85α) (h) (P27986 whole entry partner): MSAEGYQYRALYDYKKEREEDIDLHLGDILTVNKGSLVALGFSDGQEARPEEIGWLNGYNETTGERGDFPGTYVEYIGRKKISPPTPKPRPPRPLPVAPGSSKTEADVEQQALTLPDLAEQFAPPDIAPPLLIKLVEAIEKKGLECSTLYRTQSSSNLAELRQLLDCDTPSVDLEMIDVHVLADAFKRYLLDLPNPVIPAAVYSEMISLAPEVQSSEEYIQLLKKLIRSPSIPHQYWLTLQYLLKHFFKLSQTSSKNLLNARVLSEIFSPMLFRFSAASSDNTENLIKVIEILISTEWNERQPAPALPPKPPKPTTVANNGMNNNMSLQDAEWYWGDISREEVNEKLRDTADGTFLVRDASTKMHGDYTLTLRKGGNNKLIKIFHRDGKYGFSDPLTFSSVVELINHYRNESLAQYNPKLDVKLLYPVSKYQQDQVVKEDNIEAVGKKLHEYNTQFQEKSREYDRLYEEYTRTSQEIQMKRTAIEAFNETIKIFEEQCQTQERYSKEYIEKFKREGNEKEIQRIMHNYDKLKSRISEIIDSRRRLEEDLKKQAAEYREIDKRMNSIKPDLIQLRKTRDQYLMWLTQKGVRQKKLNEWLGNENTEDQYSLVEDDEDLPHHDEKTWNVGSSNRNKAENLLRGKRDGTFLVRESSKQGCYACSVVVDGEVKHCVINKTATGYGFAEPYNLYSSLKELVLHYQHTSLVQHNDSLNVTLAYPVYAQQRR
Another series deals with PI3K (p110δ/p85α) (h) (Homo sapiens (Human), UniProt O00329). The series is described as follows: PI3K (p110δ/p85α) (h) non-radioactive HTRF kinase assay. It is filed as biochemical.
Chain of PI3K (p110δ/p85α) (h) (O00329 whole entry): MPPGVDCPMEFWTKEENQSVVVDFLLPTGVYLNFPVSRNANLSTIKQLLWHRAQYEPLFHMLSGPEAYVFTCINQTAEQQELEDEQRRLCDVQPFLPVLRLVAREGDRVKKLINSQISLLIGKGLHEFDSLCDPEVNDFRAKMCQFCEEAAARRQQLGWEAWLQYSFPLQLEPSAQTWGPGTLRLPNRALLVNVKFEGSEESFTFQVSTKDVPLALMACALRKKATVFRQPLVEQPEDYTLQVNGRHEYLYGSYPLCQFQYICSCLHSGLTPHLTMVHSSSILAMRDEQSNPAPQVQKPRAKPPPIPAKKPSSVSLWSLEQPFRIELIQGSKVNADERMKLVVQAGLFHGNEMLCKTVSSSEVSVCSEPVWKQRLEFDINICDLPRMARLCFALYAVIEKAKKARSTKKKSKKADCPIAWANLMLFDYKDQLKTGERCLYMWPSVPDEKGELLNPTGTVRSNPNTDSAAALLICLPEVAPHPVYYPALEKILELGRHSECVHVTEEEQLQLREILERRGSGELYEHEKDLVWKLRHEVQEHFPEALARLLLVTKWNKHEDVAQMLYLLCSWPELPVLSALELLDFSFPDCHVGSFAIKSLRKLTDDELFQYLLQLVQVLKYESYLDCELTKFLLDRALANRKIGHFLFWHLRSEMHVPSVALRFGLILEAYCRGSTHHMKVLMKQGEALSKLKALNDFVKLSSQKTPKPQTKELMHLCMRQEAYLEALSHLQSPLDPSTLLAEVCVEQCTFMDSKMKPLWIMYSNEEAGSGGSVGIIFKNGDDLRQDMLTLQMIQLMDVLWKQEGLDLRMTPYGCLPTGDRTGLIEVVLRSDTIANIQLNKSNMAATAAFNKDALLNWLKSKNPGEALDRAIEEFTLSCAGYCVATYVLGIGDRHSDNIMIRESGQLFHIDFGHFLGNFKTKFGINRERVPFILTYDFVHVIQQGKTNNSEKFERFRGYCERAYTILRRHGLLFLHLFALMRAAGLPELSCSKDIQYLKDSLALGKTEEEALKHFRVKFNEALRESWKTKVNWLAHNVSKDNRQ
Chain of PI3K (p110δ/p85α) (h) (P27986 whole entry partner): as the sequence (P27986 whole entry partner) above
Series [4] can be described thus: Pharmacokinetics after intravenous and oral administration in monkeys. It counts as in vivo. The conditions noted are these: Monkey; for CL/F / AUC(0-t) / half-life / Vd: iv dosing, dose 1 mg/kg; for bioavailability / AUC(0-t) / half-life / Vd: plasma; for bioavailability: iv dose 1 mg/kg, oral dose generally 10 mg/kg; for Vd: read-out: Vss.
The nature of series [5]: Pharmacokinetics after intravenous and oral administration in rats. It is filed as in vivo, rat. Particulars: for clearance (CL) / AUC(0-t) / half-life / Vd: iv dosing, dose 1 mg/kg; for bioavailability / AUC(0-t) / half-life / Vd: rat, plasma; for bioavailability: iv dose 1 mg/kg, oral dose generally 5 or 10 mg/kg; for Vd: read-out: Vss.
Series [6] is described as follows: Pharmacokinetics after intravenous and oral administration in mice. It is filed as in vivo. The conditions noted are these: Mouse; for CL/F / AUC(0-t) / half-life / Vd: iv dosing, dose 1 mg/kg; for bioavailability / AUC(0-t) / half-life / Vd: plasma; for bioavailability: iv dose 1 mg/kg, oral dose generally 5 or 10 mg/kg; for Vd: read-out: Vss.
Series [7] is described as follows: Pharmacokinetics after intravenous and oral administration in dogs. It counts as in vivo. Particulars: Dog; for CL/F / AUC(0-t) / half-life / Vd: iv dosing, dose 1 mg/kg; for bioavailability / AUC(0-t) / half-life / Vd: plasma; for bioavailability: iv dose 1 mg/kg, oral dose generally 10 mg/kg; for Vd: read-out: Vss.
Series [8] is described as follows: Compound stability in rat liver microsomes. It is filed as in vitro ADME. The conditions noted are these: pH 7.4; for half-life at 5 μM: rat liver microsomes 0.5 mg protein/mL, compound 5 μM, NADPH 1.0 mM, 37° C.; for CLint scaled at 5 μM: rat liver microsomes, in vivo CLint extrapolated.
A further series addresses PI3K (p110β/p85α) (h) (Homo sapiens (Human), UniProt P42338). The series is described as follows: PI3K (p110β/p85α) (h) non-radioactive HTRF kinase assay. It counts as biochemical.

Chain of PI3K (p110β/p85α) (h) (P42338 whole entry): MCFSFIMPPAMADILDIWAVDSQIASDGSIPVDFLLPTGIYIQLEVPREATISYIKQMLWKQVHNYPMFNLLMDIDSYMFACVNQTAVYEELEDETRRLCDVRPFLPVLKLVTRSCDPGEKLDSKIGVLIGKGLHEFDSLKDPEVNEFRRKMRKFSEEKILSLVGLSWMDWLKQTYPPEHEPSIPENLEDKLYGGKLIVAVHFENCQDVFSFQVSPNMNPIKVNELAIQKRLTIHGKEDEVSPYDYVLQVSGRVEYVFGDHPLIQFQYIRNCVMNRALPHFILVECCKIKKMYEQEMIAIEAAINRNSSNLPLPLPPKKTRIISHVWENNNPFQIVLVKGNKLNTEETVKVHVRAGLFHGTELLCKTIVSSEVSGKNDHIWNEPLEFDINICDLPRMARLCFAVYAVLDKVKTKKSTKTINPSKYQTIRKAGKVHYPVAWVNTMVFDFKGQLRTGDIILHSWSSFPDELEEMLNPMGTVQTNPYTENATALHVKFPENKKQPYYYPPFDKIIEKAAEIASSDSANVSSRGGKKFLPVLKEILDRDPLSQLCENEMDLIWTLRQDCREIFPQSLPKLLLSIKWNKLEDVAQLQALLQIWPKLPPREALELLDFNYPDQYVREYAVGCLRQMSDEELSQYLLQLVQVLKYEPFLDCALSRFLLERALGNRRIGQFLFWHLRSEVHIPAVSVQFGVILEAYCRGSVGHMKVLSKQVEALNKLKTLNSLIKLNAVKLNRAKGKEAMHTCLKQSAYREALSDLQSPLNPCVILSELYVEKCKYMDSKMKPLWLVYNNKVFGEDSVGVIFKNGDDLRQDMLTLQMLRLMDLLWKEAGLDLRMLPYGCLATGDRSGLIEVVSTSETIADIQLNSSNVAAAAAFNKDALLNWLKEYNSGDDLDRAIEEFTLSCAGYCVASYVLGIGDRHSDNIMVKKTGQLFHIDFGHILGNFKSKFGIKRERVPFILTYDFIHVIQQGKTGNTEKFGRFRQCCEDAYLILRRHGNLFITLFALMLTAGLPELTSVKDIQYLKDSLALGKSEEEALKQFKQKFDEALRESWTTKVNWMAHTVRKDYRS
Chain of PI3K (p110β/p85α) (h) (P27986 whole entry partner): as the sequence (P27986 whole entry partner) above

For `O=C1NC(=O)/C(=C\c2ccc3nccnc3c2)S1` [AS 605240], the “onset of disease in a model of systemic lupus erythematosis” value in [1] is on record as “delay onset of disease”. In addition, the “efficacy in a mouse model of rheumatoid arthritis” value in [2] is given as “efficacious”.

For `Cc1ccccc1-n1c(Cn2cnc3c(N)ncnc32)nc2cccc(C)c2c1=O` [IC87114], the “inflammation and disease in a murine model of asthma” value in the series with murine model of asthma was “significantly ameliorate inflammation and disease”. In addition, on PI3Kδ, the “inhibits PI3Kδ” value is given as “high nanomolar range (triple digit)”.

On to `CC[C@H](Nc1ncnc(N)c1-c1nc(C)no1)c1nc2cccc(Cl)c2c(=O)n1C1CC1` [Ex. 4, (S)-2-(1-((6-amino-5-(3-methyl-1,2,4-oxadiazol-5-yl)pyrimidin-4-yl)amino)-propyl)-5-chloro-3-cyclopropylquinazolin-4(3H)-one], for which the half-life at 5 μM in series [3] stood at 0.759 h; in [8] it was 1.35 h. Moreover, the CLint scaled at 5 μM in series [3] was 38.2 mL/min/kg; in [8] it was 30.6 mL/min/kg. In addition, the IC50 at PI3K (p120γ) (h) worked out at 258 nM; at PI3K (p110α/p85α) (h) it was 1480 nM; on PI3K (p110δ/p85α) (h) it was 8 nM; on PI3K (p110β/p85α) (h), 113 nM. Besides, the CL/F in [4] was 11.6 mL/min/kg; in series [6], 255 mL/min/kg; in [7], 9.67 mL/min/kg. Moreover, the bioavailability stood at 55.4% in series [4], 76.1% in series [5], 11% in series [6] and 34.1% in series [7]. The AUC(0-t) in [4] was 1520 ng·h/mL; in [5] it was 726 ng·h/mL; in series [6], 651 ng·h/mL; in series [7] it was 1580 ng·h/mL. Besides, the half-life in series [4] was 3.09 h; in series [5], 5.98 h; in series [6], 1.48 h; in series [7], 11.4 h. Besides, the Vd was found to be 1.92 L/kg in series [4], 10.7 L/kg in series [5], 3.8 L/kg in [6] and 6.01 L/kg in series [7]. In [5], the “clearance (CL)” value stood at 21.5 mL/min/kg.

Regarding `Cc1nnc(-c2c(N)ncnc2N[C@@H](C)c2nc3cccc(Cl)c3c(=O)n2-c2ccccc2)o1` [Ex. 64, (S)-2-(1-((6-amino-5-(5-methyl-1,3,4-oxadiazol-2-yl)pyrimidin-4-yl)amino)ethyl)-5-chloro-3-phenylquinazolin-4(3H)-one], the half-life at 5 μM in [3] was found to be 0.93 h; in [8] it was 0.827 h. Besides, the figures for the CLint scaled at 5 μM in series [3] and in [8] were 31.1 mL/min/kg and 50.1 mL/min/kg, respectively. Further, the IC50 is 112 nM on PI3K (p120γ) (h), > 3000 nM at PI3K (p110α/p85α) (h), 8 nM on PI3K (p110δ/p85α) (h) and 674 nM at PI3K (p110β/p85α) (h). Besides, the apparent clearance (CL/F) was determined as 7.17 mL/min/kg in series [4], 18.8 mL/min/kg in series [6] and 1.83 mL/min/kg in series [7]. For the same molecule, the bioavailability in series [4] was 134%; in series [5] it was 111%; in series [6] it was 78.7%; in series [7] it was 76.3%. The AUC(0-t) in [4] worked out at 2340 ng·h/mL; in series [5] it was 596 ng·h/mL; in series [6], 883 ng·h/mL; in [7], 10000 ng·h/mL. In addition, the half-life in [4] is 3.49 h; in [5] it was 0.777 h; in series [6] it was 0.56 h; in [7] it was 3.63 h. The Vd in [4] stood at 1.4 L/kg; in series [5], 1.69 L/kg; in [6] it was 0.41 L/kg; in series [7], 0.48 L/kg. Also, the “clearance (CL)” value in [5] turned out to be 28.3 mL/min/kg.

The record behind these values is patent US9670194B2 (Calitor Sciences, LLC, priority 2013, dated 2017).
